Laboratory results from PubChem BioAssay AID2305 (GlaxoSmithKline (GSK), 2010).
Where “and” joins values, the source holds several entries; their conditions need not be identical. Identical values can stand only once.

Each molecule was assayed on P. falciparum 3D7 growth, pLDH absorbance (assay: P. falciparum 3D7 growth inhibition, dose response, strain 3D7 (AID 2305)).

| Compound | IC50 |
| --- | --- |
| Cc1nc(N)nc(N)c1-c1cc(Cl)c(Cl)c(Cl)c1 | 830 nM |
| CC(C)NCc1ccc(-c2ccc(-c3nc4ccc(C(F)(F)F)cc4[nH]3)s2)cc1 | 180 nM |
| CC(C)N1CCC(N(Cc2ccc(-c3ccc(C(F)(F)F)cc3)cc2)C(=O)Cn2c(SCc3cccc(F)c3F)cc(=O)c3c2CCC3)CC1 | 1160 nM |
| CCCCCCCN(CCCCCCC)CCCC(=O)Nc1ccnc2ccc(OC)cc12 | 150 nM |
| FC(F)(F)c1cccnc1N1CCC(Nc2nc3ccc(Cl)cc3[nH]2)CC1 | 650 nM |
| OC1CCCN(Cc2ccc(-c3ccc(-c4nc5ccccc5[nH]4)cc3)cc2)C1 (stereo not given) | 840 nM |
| COc1c(C2CCN(CCCCNC(=O)c3ccc(-c4ccc(C#N)cc4)cc3)CC2)cc(Cl)c2c1CCCC2 | 780 nM |
| O=C(C=Cc1ccc(Br)cc1)N1CCC(CCN2CCC(c3c[nH]c4ccccc34)CC2)CC1 | 920 nM |
| Fc1cccc(-c2ccc3c(c2)CC(NCc2c[nH]c4cnccc24)C3)c1 (stereo not given) | 480 nM |
| Cc1cc(C(=O)NC2CCN(Cc3ccccc3)CC2)ccc1-c1nc2cc(Cl)c(Cl)cc2[nH]1 | 960 nM |
| CCN(CC)C(=O)C(=O)c1c[nH]c2ccc(Cl)cc12 | 80 nM |
| O=C(Nc1cccc(C(F)(F)F)c1)N1CCOC(CCN2CCC3(CCc4ccccc43)CC2)(c2ccc(Cl)c(Cl)c2)C1 (stereo not given) | 740 nM |
| CC(C)(C)c1ccc(CN2CCCCC(NC(=O)c3cc(-c4cccc(Cl)c4)cs3)C2)cc1 (stereo not given) | 1000 nM |
| CC12CN3CC(C)(CN(C1)C3c1cc(Br)ccc1O)C2O (stereo not given) | 230 nM |
| CC(Cc1ccc(NC(=O)c2ccc(CNCc3ccccc3)cc2)cc1)N(CCc1cccc(Cl)c1)C(=O)OC(C)(C)C (stereo not given) | 970 nM |
| COc1ccc2nccc(N3CCC(SCCNS(=O)(=O)c4ccc5c(c4)OCCO5)C3)c2n1 (stereo not given) | 980 nM |
| CCOc1ccc(C=CC(=O)Nc2ccc3nc(N4CCOCC4)cc(C)c3c2)cc1OC | 900 nM |
| CCC(CC)N1C(=O)C(c2ccccc2)(c2ccccc2)N=C1N | 800 nM |
| Clc1ccc(-c2cnc3ccc(NCCc4cccnc4)nn23)cc1 | 860 nM |
| N#Cc1ccc2[nH]cc(-c3cn4cc(SC5CCCC5)ccc4n3)c2c1 | 940 nM |
| CN(C)S(=O)(=O)c1cc(-c2ccc3nccc(-c4cccc(S(N)(=O)=O)c4)c3c2)cnc1N | 250 nM |
| COc1ccc(CNCc2cccc(-c3cccc(-c4nc5ccc(F)cc5[nH]4)c3)c2)cc1 | 300 nM |
| COc1ccc(-n2ccnc2SCC(=O)Nc2cc(C(F)(F)F)ccc2Cl)c(OC)c1 | 40 nM |
| CCCCCCN=C(N)c1ccc2nc(-c3ccc(O)cc3)[nH]c2c1 | 190 nM |

| Compound | IC50 |
| --- | --- |
| Cn1cc(CN2CCC(CCOC(c3ccccc3)c3ccccc3)CC2)cn1 | 260 nM |
| Ic1cc(CNC2CCCCC2)ccc1OCc1cccc(COc2ccc(CNC3CCCCC3)cc2I)c1 | 830 nM |
| O=C(Nc1ccc2c(c1)OCCO2)c1cc(-c2cccnc2)nc2ccc(Cl)cc12 | 710 nM |
| Cc1nc2ccc3ccc(CNc4ccc(C(=O)N[C@@H](CCC(=O)O)C(=O)N[C@@H](Cc5cccs5)C(=O)O)c(F)c4)cc3c2c(=O)[nH]1 | 790 nM |
| COc1ccc(CNc2nc(NCc3ccccc3)c3cc(OC)c(OC)cc3n2)cc1OC | 540 nM |
| OCC1CCN(Cc2ccc(-c3ccc(-c4nc5ccc(F)cc5[nH]4)s3)cc2)CC1 | 850 nM |
| CCOc1cc(Cc2cnc(N)nc2N)cc(OCC)c1OCCCCC(=O)OC | 40 nM |
| C=C[C@H]1CN2CC[C@@H]1C[C@H]2[C@H](O)c1cc(-c2ccc(F)cc2)nc2ccc(OC)cc12 | 170 nM |
| COC(=O)COc1cc(C(=O)NCCCCN2CCC(c3ccc4c(c3OC)CCCC4)CC2)ccc1-c1ccc(Cl)cc1 | 260 nM |
| COC(=O)c1ccc2c(-c3nc4ccc(OC)cc4[nH]3)c[nH]c2c1 | 880 nM |
| Cc1ccc2nc(/N=C(\N)NC(=O)NC3CCCCC3)nc(C)c2c1 | 620 nM |
| COc1cc2nc(N3CCC(CNC(=O)c4ccc(-c5ccc(C(=O)N(C)C)cc5OCCN(C)C)cc4)CC3)nc(N)c2cc1OC | 840 nM |
| CC(C)C[C@@H](/C=N/N1CCNC1=O)NC(=O)[C@H](CC(C)C)NC(=O)c1ccc(OCCN2CCOCC2)cc1 | 190 nM |
| O=C(/C=C/c1ccc(Cl)c(Cl)c1)NCCCCCN1CCN(C(=O)Nc2cccc(F)c2)CC1 | 870 nM |
| Cc1ccc(C2CCN(CCCCNC(=O)c3ccc(-c4ccc(C(F)(F)F)cc4)cc3)CC2)c(O)c1 | 130 nM |
| O=C(Nc1ccc(C(F)(F)F)cc1)c1ccc(S(=O)(=O)NCC2CCCN(CC3CCCCC3)C2)cc1 (stereo not given) | 150 nM |
| Cc1noc(C)c1-c1ccc2c(Nc3ccc(C#N)cc3)c(C(N)=O)cnc2c1 | 750 nM |
| CCCCCCCN1CC[C@H](NC(=O)Nc2ccnc3ccc(OC)cc23)[C@H](C(=O)OCC)C1 | 430 nM |
| Cc1[nH]c(C)c(-c2ccc(-c3ccc(OC(F)(F)F)cc3)nc2)c(=O)c1Cl | 200 nM |
| CCNc1cc(C)nc(Nc2ccc(NC(=O)c3c(F)cccc3Cl)cc2)n1 | 1120 nM |
| CN(Cc1ccccc1)C1CCCN(c2cc(NC(=O)c3cccs3)ccn2)C1 (stereo not given) | 1130 nM |
| CC(C)(C)CCN1CCC(CNC(=O)c2cc(-c3cccc(Cl)c3)cs2)C1 (stereo not given) | 820 nM |
| OC(CNCc1ccccc1OCc1ccccc1)c1cccc(Br)c1 (stereo not given) | 640 nM |
| CCCNC(=O)C1Cc2c([nH]c3cc(Br)ccc23)C2(CCN(CCc3ccccc3)CC2)N1 (stereo not given) | 970 nM |

| Compound | IC50 |
| --- | --- |
| COc1ccc(-c2nonc2NC(=O)c2ccc(C(C)(C)C)cc2)cc1OC | 810 nM |
| CO/C(=C\C=C\c1cc2cc(Cl)c(Cl)cc2[nH]1)C(=O)NCCCNC12CC3CC(CC(C3)C1)C2 | 730 nM |
| CC(C)(C)c1ccc(Cn2nc(C(=O)N3CCN(C(=O)C4CCCO4)CC3)c3ccccc32)cc1 (stereo not given) | 1320 nM |
| Cc1cccc2[nH]c(-c3ccc(-c4ccc(C(=O)NCCN5CCCC5)cc4)cc3)nc12 | 520 nM |
| CCOC(=O)c1c(CN(CC)CC)n(-c2ccccc2)c2cc(Br)c(O)cc12 | 1000 nM |
| COc1ccc2c(NN=Cc3c(OC)ccc4ccccc34)cc(C)nc2c1 | 780 nM |
| CC(=O)c1c(Cc2ccccc2Cl)c[nH]c1C | 850 nM |
| O=C(C1CCN(c2nnnn2-c2ccccc2)CC1)N1CCc2ccccc2C1 | 710 nM |
| COc1cccc(NC(=O)[C@H](C(C)C)n2c(=O)[nH]c3ccccc3c2=O)c1 | 270 nM |
| Oc1ccc2[nH]c(-c3ccc(F)cc3F)nc2c1CN1CCC(O)(c2ccccc2)CC1 | 840 nM |
| CO/C(=C\C=C\c1cc2cc(Cl)c(Cl)cc2[nH]1)C(=O)NCCCN1CCN(C2CCCCC2)CC1 | 1010 nM |
| CCOC(=O)COc1cccc(CNc2ccc3nc(N)nc(N)c3c2)c1 | 410 nM |
| CC(C)(C)c1ccc(C(=O)NC2CCC(CCN3CCc4ccc(S(C)(=O)=O)cc4CC3)CC2)cc1C(F)(F)F (stereo not given) | 1220 nM |
| CCN1CCC(N(Cc2ccc(-c3ccc(C(F)(F)F)cc3)cc2)C(=O)Cn2c(CCc3cccc(F)c3F)cc(=O)c3ccc(OCc4ccccc4)cc32)CC1 | 370 nM |
| Cc1ccccc1C1CCN(C2CCC(NC(=O)/C=C/c3ccc(C(F)(F)F)cc3)CC2)CC1 (stereo not given) | 1040 nM |
| Cc1cc2[nH]c(-c3ccc(C(=O)NCCCN4CCN(c5cccc(Cl)c5)CC4)cc3)nc2cc1Cl | 770 nM |
| Cc1ccnc(NC(c2cccc(Cl)c2Cl)c2ccc3cccnc3c2O)c1 (stereo not given) | 1000 nM |
| CCOC(=O)c1ccc(NC(=O)Nc2ccc(-c3ccc(-c4nc5ccc(C(F)(F)F)cc5[nH]4)cc3)cc2)cc1 | 270 nM |
| O=C(Nc1cccc(-c2cccc(-c3nc4ccc(C(F)(F)F)cc4[nH]3)c2)c1)c1ccc(=O)[nH]n1 | 660 nM |
| CCOC(=O)CN(c1ccc(Br)cc1OCCOc1cc(Br)ccc1N(CC(=O)OCC)C(C)C(=O)OCC)C(C)C(=O)OCC (stereo not given) | 810 nM |
| O=C(NCCCCN1CCC(c2ccc3c(c2OCC(O)c2ccc(Cl)cc2)CCCC3)CC1)c1ccc(-c2ccc(C(F)(F)F)cc2)cc1 (stereo not given) | 1040 nM |
| O=S1N=C(NCCCN(Cc2cccs2)c2ccccn2)C(NCc2ccccc2)=N1 (stereo not given) | 310 nM |
| COc1ccc2c(=O)c(C3CCC(c4ccc(Cl)cc4)CC3)c(C)[nH]c2c1 (stereo not given) | 650 nM |
| O=C(/C=C/c1ccc(Cl)c(Cl)c1)NCCCCCCN1CCN(C(=O)Nc2ccc(C(F)(F)F)cc2)CC1 | 400 nM |

| Compound | IC50 |
| --- | --- |
| Cc1noc(C)c1-c1ccc2c(Nc3cccc4c3-c3ccccc3C4=O)c(C(=O)NCc3ccccc3I)cnc2c1 | 630 nM |
| COc1ccc(Nc2nccc(N3CCC(NC(=O)C(C)c4ccc(Cl)cc4)CC3)n2)cc1 (stereo not given) | 930 nM |
| OC(CN1c2ccccc2Sc2ccccc21)CN(C1CCCCC1)C1CCCCC1 (stereo not given) | 650 nM |
| Cc1ccc(C[C@@H](C)NC[C@H](O)c2cccc(C(F)(F)F)c2)cc1 | 880 nM and 710 nM |
| Cc1nn(C2CCS(=O)(=O)C2)c(C)c1C1Nc2ccccc2C(=O)N1Cc1ccc2c(c1)OCO2 (stereo not given) | 510 nM |
| CCC1CN2CCc3c([nH]c4ccccc34)C2CC1CC1=NCCc2c1[nH]c1ccc(OC)cc21 (stereo not given) | 640 nM |
| CS(=O)(=O)Nc1cccc(-c2cnc3[nH]cc(-c4ccc(CN)cc4)c3c2)c1 | 990 nM |
| O=S(=O)(Nc1ccc(CCN2CCCCC2CCN2CCCC2)cc1)c1ccc(-c2ccccc2)cc1 (stereo not given) | 930 nM |
| O=C(/C=C/c1ccc(Cl)c(Cl)c1)NCCCCCN1CCC(NC(=O)NC2CCCC2)CC1 | 630 nM |
| Cc1ccccc1C1CCN(C2CCC(NC(=O)/C=C/c3ccc(Cl)cc3)CC2)CC1 (stereo not given) | 800 nM |
| O=c1cc(NCCCNCc2cc(F)cc(C(F)(F)F)c2)[nH]c2ccccc12 | 1200 nM |
| COc1ccccc1C1CCN(C2CCC(NC(=O)/C=C/c3ccc(C(F)(F)F)cc3)CC2)CC1 (stereo not given) | 1160 nM |
| CC(C)CNCc1cccc(-c2ccc(CNc3ccc(C(=O)c4ccccc4)cc3)cc2)c1 | 760 nM |
| CC(C)Cn1c2ccccc2c2nc3nc(N)nc(N)c3nc21 | 720 nM |
| Cc1cccc2[nH]c(-c3cccc(-c4ccc(NC(=O)C(=O)c5cccn5C)cc4)c3)nc12 | 380 nM |
| CCCCCN1CCC(NS(=O)(=O)c2cccc(C(=O)Nc3ccc(C(F)(F)F)cc3)c2)C1 (stereo not given) | 800 nM |
| Cc1cc(N[C@@H](CC(C)C)C(=O)NCc2cccc(F)c2)nc(NCC2CCCCC2)n1 | 830 nM |
| N#Cc1ccc(N2CCN(Cc3cccc(-c4cccc(-c5nc6ccc(C(F)(F)F)cc6[nH]5)c4)c3)CC2)nc1 | 960 nM |
| O=C(Nc1ccc(-c2nc3ccccc3[nH]2)cc1)c1cncc(Br)c1 | 810 nM |
| Cc1nc(Nc2ccc(F)cc2)nc(N2CCc3ccccc3C2C)c1CO (stereo not given) | 740 nM |
| CCCCc1cc(=O)oc2cc(C)cc(OCc3ccccc3F)c12 | 1030 nM |
| CC(C)[C@H]1C(=O)N(S(C)(=O)=O)[C@H]2CCN(C(=O)c3ccc(CN4CCCCC4)c([N+](=O)[O-])c3)[C@H]12 | 620 nM |
| COc1ccc2nc(SC(C)C(=O)c3c[nH]c4ccccc34)[nH]c2c1 (stereo not given) | 1280 nM |
